Experimental data as given in PubChem BioAssay (NCI).
Several values for one entry are separate records, joined by “and”; a condition that tells them apart may be missing. Identical values can stand only once.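 Results reflect a 48-hour exposure of cells in 96-well plates to compound at five concentrations. GI50 marks 50% less growth. Definition used: TGI = concentration required for complete inhibition of growth.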

Experiments:
Assay in all cases: NCI tumour cell line growth inhibition, 48 h
MDA-N = tested on: MDA-N
DLD-1 colon = tested on: DLD-1 colon
HOP-18 NSCLC = tested on: HOP-18 NSCLC
DMS 114 small cell lung = tested on: DMS 114 small cell lung
SNB-78 CNS = tested on: SNB-78 CNS
KM20L2 colon = tested on: KM20L2 colon
RXF-631 renal = tested on: RXF-631 renal
LXFL 529 NSCLC = tested on: LXFL 529 NSCLC
M19-MEL melanoma = tested on: M19-MEL melanoma
P388 leukemia = tested on: P388 leukemia
P388/ADR leukemia = tested on: P388/ADR leukemia

Row | Structure (SMILES) | TGI (MDA-N) [µM] | TGI (DLD-1 colon) | TGI (HOP-18 NSCLC) [µM] | TGI (DMS 114 small cell lung) [µM] | TGI (SNB-78 CNS) | TGI (KM20L2 colon) [µM] | TGI (RXF-631 renal) [µM] | TGI (LXFL 529 NSCLC) [µM] | TGI (M19-MEL melanoma) [µM] | further results
1 | COC(=O)c1c[nH]c(=O)[nH]c1=O | > 100 |  |  |  |  |  |  |  |  | 
2 | COc1ccc(C2OC(=O)c3c2ccc2ccccc32)c(C)c1 (stereo not given) | 4.34 |  |  |  |  |  |  |  |  | 
3 | Cc1cc(NS(=O)(=O)c2ccc(Nc3c4ccccc4nc4c(C(=O)Nc5ccc(S(=O)(=O)N=C(N)N)cc5)cccc34)cc2)no1 |  | > 100 µM | > 100 | > 100 | > 100 µM | > 100 | > 100 | > 100 | > 100 | 
4 | C(=N\Nc1nnc2c(n1)[nH]c1ccccc12)/c1cccnc1 | > 100 |  |  |  |  |  |  |  |  | 
5 | Cn1cnc([N+](=O)[O-])c1Sc1ccccn1 |  | > 100 µM | 96.1 | > 100 | > 100 µM |  | > 100 | > 100 | > 100 | 
6 | C[Si](C)(C)/C=C/CCC(C=O)(CCCl)c1ccccc1 (stereo not given) |  | > 100 µM | 80 | 54.9 | 78.9 µM | > 100 |  | > 100 | > 100 | 
7 | O=C1C2c3[nH]c4ccccc4c3[C@@H]3CCCCCCCCCCC3C2C(=O)N1c1ccccc1 (stereo not given in full) |  | > 100 µM | 99.6 | 37 | 24.7 µM |  | 28 | 28.1 | 57.4 | 
8 | COC(=O)C[CH](C(=O)OC)[Ge]([CH3])([CH3])[S]c1ccccc1 (stereo not given) |  | 42.4 µM | > 100 |  | 96.7 µM | 67.9 |  | 36 | 54.7 | GI50 (DLD-1 colon): 22 µM; GI50 (HOP-18 NSCLC): > 100 µM; GI50 (SNB-78 CNS): 22.1 µM; GI50 (KM20L2 colon): 26.7 µM; GI50 (LXFL 529 NSCLC): 17.5 µM; GI50 (M19-MEL melanoma): 16.9 µM
9 | Cc1c[nH]c2c1C13CC1CN(C(=O)c1cc4cc(NC(=O)c5cc6ccccc6o5)ccc4[nH]1)C3=CC2=O (stereo not given) |  | 34.6 nM and 1.69 µg/mL | < 0.001 | < 0.001 | 32.1 nM and 0.0318 µg/mL | < 0.001 | 0.0139 |  | < 0.001 | GI50 (DLD-1 colon): > 1.17 ng/mL; GI50 (DMS 114 small cell lung): > 1.17 ng/mL; GI50 (SNB-78 CNS): > 1.17 ng/mL; GI50 (P388 leukemia): > 1.17 ng/mL; GI50 (P388/ADR leukemia): > 1.17 ng/mL
10 | CC1=NNC(=NCCN(C)C)C/C1=C/c1ccccc1Cl |  | > 100 µM | > 100 | > 100 | > 100 µM | > 100 | > 100 | > 100 | > 100 | 
11 | N/C(=N\NS(=O)(=O)c1ccccc1)Oc1ccc(Cl)cc1 |  | > 100 µM | > 100 | > 100 | > 100 µM | > 100 |  | > 100 | > 100 | 
12 | COc1cc([C@@H]2c3cc4c(cc3[C@@H](NC(=O)c3ccc(N)cc3)C3COC(=O)[C@@H]32)OCO4)cc(OC)c1O (stereo not given in full) |  | 35.4 µM | > 100 | 9.71 |  | 9.57 |  | > 100 | > 100 | 
13 | O=[N+]([O-])c1cccc([N+](=O)[O-])c1S(=O)(=O)c1ccccc1 | 19.8 |  |  |  |  |  |  |  |  | 
14 | O=NC1c2cccc3cccc(c23)C1N=O (stereo not given) | 25.4 |  |  |  |  |  |  |  |  | 
15 | CN(C)C[C@H]1CC[C@@H](CN(C)C)C1=O | 16.1 | 11.5 µM | 14.8 | 17.5 | 23.3 µM | 25.5 |  | 12.5 | 17 | 
16 | Cc1nc(C)c(C(=O)Nc2cccc3c2C(=O)NC3=O)cc1C(=O)Nc1cccc2c1C(=O)NC2=O |  | > 100 µM | > 100 | > 100 | > 100 µM | > 100 |  | > 100 | > 100 | 
17 | c1ccc2c(CNCCCCCCNCc3cccc4ccccc34)cccc2c1 |  | 13.8 µM | 29.1 | 20.2 | 23.9 µM | 6.74 | 9.46 | 3.39 | 14.3 | 
18 | CC#C[C@@]1(O)CCCC[C@@H]1O |  |  | > 100 | > 100 | > 100 µM | > 100 | > 100 |  | > 100 | 
19 | N#Cc1cccc(NC(=O)c2ccc(C(=O)O)c(C(=O)c3ccc(C(=O)O)c(C(=O)Nc4cccc(C#N)c4)c3)c2)c1 |  | > 100 µM | > 100 | > 100 | > 100 µM | > 100 |  | > 100 | > 100 | 
20 | Nc1nc2c(ncn2C2OC(CO)C(O)C2N)c(=O)[nH]1 (stereo not given) |  | > 100 µM |  | > 100 | > 100 µM |  | > 100 | > 100 | > 100 | 
21 | Cc1ccc2nc3c(C)c(Cl)c(=O)cc-3sc2c1 | 32.1 | > 100 µM | 75.8 | 12.9 | 96.9 µM | > 100 | 91.3 | > 100 | 12.9 | 
